Test results published in patent US5310938A, “Substituted arylpyrrole compounds” (American Cyanamid Company, priority 1993, dated 1994).

test system: Caenorhabditis elegans; test: Nematicidal activity against C. elegans (motility rating); format: in vivo, C. elegans (Bristol strain); parameters: key: 9: complete kill; 8: no motility; 7: markedly reduced motility in approximately 95% of worms; 6: reduced motility; 5: slightly reduced motility; 0: normal motility, same as controls; conditions: read at 4 and 24 hours post-immersion
Description: Cultures of C. elegans (Bristol strain from J. Lewis) are maintained on E. coli lawns on NG Agar Plates at 20° C. New cultures are established weekly.
Nematodes for testing are washed from 4-5 day old cultures using Fresh Ascaris Ringers Solution (FARS). The worms are further washed with FARS,-containing gentamycin, to reduce bacterial contamination and centrifuged to separate worms from wash solution. This procedure is repeated three times. The washed worms are then added to C. brigassae Maintenance Medium (CbMM), from GIBCOa to which is added gentamycin (600 units/ml) and mycostatin (0.5 mg/ml).
Compounds are dissolved in acetone and made up to volume with equal parts of water. The final test concentration of each compound in the mixture is 150 ppm. The test material is micropipetted (25 ul) into a single well of a 96-well sterile tissue culture plate (COSTAR)^b and the solvent allowed to evaporate. These "treated" plates are used immediately or stored in a refrigerator without apparent adverse effects on the compounds.
A freshly prepared volume ([…]) of C. elegans in CbMM is micropipetted into each treated well and several control wells per plate. Culture plates are incubated at 20° C.
Observations for efficacy are made under a dissecting microscope at 4 and 24 hours post-immersion. Immediately prior to reading the plate, it is gently tapped to stimulate the movement of the worms. Activity is judged based on the drug effects on motility of the adults and larvae. […] Other factors indicating activity are easily noted such as death, rigor mortis, contraction, coiling, paralysis, abnormal twitching, reduced worm population in 48 hours and other deviation from normal behavior.
Day 0 Inoculate E. Coli-NG Agar Dish With 30-40
Day 4 Harvest New C. Elegans Population
Add C. Elegans (25-100 µL) To "Medicated"
Observe for Activity at 4 hours Post-
Day 5 Observe For Activity

| Compound | Rating Against C. Elegans 150 ppm |
| --- | --- |
| N#Cc1c(-c2ccc(Cl)cc2)[nH]c(C(F)(F)F)c1Br [4-Bromo-2-(p-chlorophenyl)-5-(trifluoromethyl)pyrrole-3-carbonitrile] | 9 |
| N#CCn1c(-c2ccc(Cl)cc2)c(C#N)c(Br)c1C(F)(F)F [3-Bromo-5-(P-chlorophenyl)-4-cyano-2-(trifluoromethyl)-pyrrole-1-acetonitrile] | 9 |
| N#Cc1c(Br)[nH]c(-c2ccc(C(F)(F)F)cc2)c1Br [2,4-Dibromo-5-(α,α,α-trifluoro-P-tolyl)pyrrole-3-carbonitrile] | 9 |
| CN(C)CCn1c(Cl)c(Cl)c(C#N)c1-c1ccc(Cl)c(Cl)c1 [4,5-Dichloro-2-(3,4-dichlorophenyl)-1-[2-(dimethylamino)ethyl]pyrrole-3-carbonitrile] | 9 |
| N#Cc1c(-c2ccccc2Cl)[nH]c(Br)c1Br [4,5-Dibromo-2-(0-chlorophenyl)-pyrrole-3-carbonitrile] | 9 |
| O=[N+]([O-])c1c(-c2ccc(C(F)(F)F)cc2)[nH]c(Cl)c1Cl [2,3-Dichloro-4-nitro-5-(α,α,α-Trifluoro-p-tolylpyrrole] | 9 |
| N#Cc1c(-c2ccc(C(F)(F)F)cc2)[nH]c([N+](=O)[O-])c1Br [4-Bromo-5-nitro-2-(α,α,α-trifluoro-P-tolyl)pyrrole-3-carbonitrile] | 9 |
| C=CCn1c(Cl)c(Cl)c(C#N)c1-c1ccc(Cl)c(Cl)c1 [1-Alkyl-4,5-dichloro-2-(3,4-dichlorophenyl)pyrrole-3-carbonitrile] | 9 |
| N#Cc1[nH]c(Br)c(-c2ccc(Cl)cc2)c1Br [3,5-Dibromo-4-(p-chlorophenyl)pyrrole-2-carbonitrile] | 9 |
| N#Cc1c(-c2ccc(Cl)c(Cl)c2)[nH]c([N+](=O)[O-])c1Br [4-Bromo-2-(3,4-dichlorophenyl-5-nitropyrrole-3-carbonitrile] | 9 |
| N#Cc1c[nH]c(C(F)(F)F)c1-c1ccccc1 [4-Phenyl-5-(trifluoromethyl)pyrrole-3-carbonitrile] | 9 |
| FC(F)(F)c1[nH]ccc1-c1ccc(Cl)cc1 [3-(P-chlorophenyl)-2-(trifluoromethyl)pyrrole] | 9 |
| N#Cc1c(-c2ccc(Cl)cc2)[nH]c(C(F)(F)F)c1C(F)(F)F [2-(P-chlorophenyl)-4,5-bis(trifluoromethyl)pyrrole-3-carbonitrile] | 9 |
| N#Cc1[nH]c(-c2ccc(OC(F)(F)F)cc2)c(C#N)c1Br [3-Bromo-5-[P-(trifluoromethoxy)phenyl]-pyrrole-2-4-dicarbonitrile] | 9 |
| N#Cc1c(-c2ccc([N+](=O)[O-])cc2)[nH]c(Br)c1Br [4,5-Dibromo-2-(P-nitrophenyl)-pyrrole-3-carbonitrile] | 9 |
| N#Cc1c(-c2ccc(C(F)(F)F)cc2)[nH]c(Br)c1Br [4,5-Dibromo-2-(α,α,α-trifluoro-p-tolyl)pyrrole-3-carbonitrile] | 9 |
| O=[N+]([O-])c1c(-c2ccc(Cl)c(Cl)c2)[nH]c(Cl)c1Cl [2,3-Dichloro-5-(3,4-dichlorophenyl)-4-nitropyrrole] | 9 |
| N#Cc1ccc(-c2[nH]c(Br)c(Br)c2C#N)cc1 [4,5-Dibromo-2-(P-cyanophenyl)-pyrrole-3-carbonitrile] | 9 |
| N#Cc1ccc(-c2[nH]c(Cl)c(Cl)c2C#N)cc1 [4,5-Dichloro-2-(P-cyanophenyl)-pyrrole-3-carbonitrile] | 9 |
| CCOCn1c(-c2ccc(C(F)(F)F)cc2)c(C#N)c(Br)c1C(F)(F)F [4-Bromo-1-(ethoxymethyl)-5-(trifluoromethyl)-2-(α,α,α-trifluoro-P-tolyl)-pyrrole-3-carbonitrile] | 9 |
| N#Cc1[nH]c(Br)c(C#N)c1-c1ccc(Cl)cc1 [5-Bromo-3-(P-chlorophenyl)-pyrrole-2,4-dicarbonitrile] | 9 |
| O=[N+]([O-])c1cc([N+](=O)[O-])c(-c2ccc(Br)cc2)[nH]1 [2-(P-bromophenyl)-3,5-dimitropyrrole] | 9 |
| O=[N+]([O-])c1c(Cl)[nH]c(Cl)c1-c1ccc(Cl)c(Cl)c1 [2,5-Dichloro-3-(3,4-dichlorophenyl)-4-nitropyrrole] | 9 |
| COCCn1c(Cl)c(Cl)c(C#N)c1-c1ccc(C(F)(F)F)cc1 [4,5-Dichloro-1-(methoxyethyl)-2-(α,α,α-trifluoro-P-tolyl)pyrrole-3-carbonitrile] | 9 |

| Compound | Rating Against C. Elegans 150 ppm |
| --- | --- |
| N#Cc1c[nH]c(-c2ccc(C(F)(F)F)cc2)c1 [5-(α,α,α-trifluoro-tolyl)-pyrrole-3-carbonitrile] | 9 |
| N#Cc1c(-c2ccc(Cl)cc2Cl)[nH]c(C(F)(F)F)c1Br [4-Bromo-2-(2,4-dichlorophenyl)-5-(trifluoromethyl)pyrrole-3-carbonitrile] | 9 |
| O=[N+]([O-])c1c(-c2ccc(Br)cc2)[nH]c(Cl)c1Cl [2-(P-bromophenyl)-4,5-dichloro-3-nitropyrrole] | 9 |
| O=[N+]([O-])c1c[nH]cc1-c1ccccc1 [3-Nitro-4-phenylpyrrole] | 9 |
| N#Cc1c(-c2cccc([N+](=O)[O-])c2)[nH]c(C(F)(F)F)c1Br [4-Bromo-2-(m-nitrophenyl)-5-(trifluoromethyl)pyrrole-3-carbonitrile] | 9 |
| CCOCn1c(-c2ccc(Cl)cc2Cl)c(C#N)c(Br)c1C(F)(F)F [4-Bromo-2-(2,4-Dichlorophenyl)-1-(ethoxymethyl)-5-(trifluoromethyl)pyrrole-3-carbonitrile] | 9 |
| N#Cc1cc([N+](=O)[O-])[nH]c1-c1ccc(Cl)cc1 [2-(p-chlorophenyl)-5-nitropyrrole-3-carbonitrile] | 9 |
| 4,5-Dichloro-1-(hydromethyl)-2-(α,α,α-trifluoro-P-tolyl) | 9 |
| CSCCn1c(Cl)c(Cl)c(C#N)c1-c1ccc(Cl)c(Cl)c1 [4,5-Dichloro-2-(3,4-dichlorophenyl)-1[2-(methylthio)ethyl]pyrrole-3-carbonitrile] | 9 |
| N#Cc1cc([N+](=O)[O-])c(-c2ccc(Cl)c(Cl)c2)[nH]1 [5(3,4-Dichlorophenyl)-4-nitropyrrole-2-carbonitrile] | 9 |
| N#Cc1c(-c2ccc(Cl)c(Cl)c2)[nH]c(C(F)(F)F)c1Br [4-Bromo-2-(3,4-dichlorophenyl)-5-(trifluoromethyl)pyrrole-3-carbonitrile] | 9 |
| N#Cc1c(Br)[nH]c(C(F)(F)F)c1-c1ccc(Cl)cc1 [2-Bromo-4-(P-chlorophenyl)-5-(trifluoromethyl)pyrrole-3-carbonitrile] | 9 |
| N#Cc1c(Br)c(C#N)n(Cc2ccccc2)c1-c1ccc(Cl)cc1 [1-Benzyl-3-bromo-5-(P-chlorophenyl)pyrrole-2,4-dicarbonitrile] | 9 |
| N#Cc1[nH]c(-c2ccc(Cl)c(Cl)c2)c(Br)c1Br [3,4-dibromo-5-(3,4-dichlorophenyl)pyrrole-2-carbonitrile] | 9 |
| N#Cc1cc(C#N)c(-c2ccc(Cl)c(Cl)c2)[nH]1 [5-(3,4-Dichlorophenyl)-pyrrole-3-dicarbonitrile] | 9 |
| N#Cc1c(Br)c(Br)n(Cc2ccccc2)c1-c1ccc(C(F)(F)F)cc1 [1-Benzyl-4,5-dibromo-2-(α,α,α-trifluoro-p-tolyl)pyrrole-3-carbonitrile] | 9 |
| N#Cc1[nH]c(-c2ccc(Cl)c(Cl)c2)c([N+](=O)[O-])c1Br [3-Bromo-5-(3,4-dichlorophenyl)-4-nitropyrrole-2-carbonitrile] | 9 |
| N#Cc1c(Br)[nH]c(C(F)(F)F)c1-c1ccccc1 [2-Bromo-4-phenyl-5-(trifluoromethyl)pyrrole-3-carbonitrile] | 9 |
| N#Cc1[nH]ccc1-c1ccc(Cl)cc1 [3-(P-chlorophenyl)pyrrole-2-carbonitrile, 3-(p-chlorophenyl)-pyrrole-2-carbonitrile] | 9 |
| O=[N+]([O-])c1c[nH]cc1-c1ccc(Cl)cc1 [3-(P-chlorophenyl)-4-nitro-pyrrole] | 9 |
| COCn1c(-c2ccc(Cl)cc2)c(C#N)c(Br)c1C(F)(F)F [4-Bromo-2-(P-chlorophenyl)-1-(1-methoxymethyl)-5-(trifluoromethyl)pyrrole-3-carbonitrile] | 9 |
| N#Cc1c(-c2ccc(C(F)(F)F)cc2)[nH]c(Cl)c1Cl [4,5-Dichloro-2-(α,α,α-trifluoro-P-tolylpyrrole-3-carbonitrile] | 9 |
| N#Cc1c(-c2ccc([N+](=O)[O-])cc2)[nH]c(Cl)c1Cl [4,5-Dichloro-2-(P-nitrophenyl)-pyrrole-3-carbonitrile] | 9 |
